Calls of active or inactive are those of the source. No cut-off for these calls is given here.
Tests used:
[1] = system: DLA; assay: Antitumor activity in mouse DLA cells xenografted Swiss albino mouse assessed as inhibition of tumor cell proliferation at 1 mg/kg, po administered after 7 days of tumor induction measured each 3 days upto 31 days; assay type: functional, organism-based; parameters: dose 1 mg/kg
[2] = system: DLA; assay: Antiproliferative activity against mouse DLA cells assessed as radiolabeled thymidine incorporation at 10 to 200 ug after 24 hrs by liquid scintillation counter; assay type: functional, cell-based

| SMILES | Activity [1] | Activity [2] |
| --- | --- | --- |
| CC(=O)OC1(c2ccccc2)OC(c2ccccc2)=C(c2ccccc2)C1=O (centres undefined) | Active | Active |
| COC1(c2ccccc2)OC(c2ccccc2)=C(c2ccccc2)C1=O (centres undefined) | Active | Active |

From ChEMBL document CHEMBL1143330, “Preliminary investigations on the synthesis and antitumor activity of 3(2H)-furanones” (Bioorg Med Chem Lett, 2009)
